The numbers were not newly measured in patent publication US20260232695A1, “ORAL FORMULATIONS OF ABIRATERONE ACETATE AND METHOD OF MANUFACTURING THEREOF” (BDR PHARMACEUTICALS INTERNATIONAL PRIVATE LIMITED, priority 2022, published 2026), which cites them from elsewhere.

For this series the following is noted: poor solubility in water and lower lipid permeability.

On to `CC(=O)O[C@H]1CC[C@@]2(C)C(=CC[C@@H]3[C@@H]2CC[C@]2(C)C(c4cccnc4)=CC[C@@H]32)C1` [Abiraterone Acetate, 17-(pyridin-3-yl)androsta-5,16-dien-3β-yl acetate], for which the BCS class result is “Class IV”.
